Measurements: US11434227B2, “Broad spectrum antibacterial activity of novel bisbenzimidazoles targeting topoisomerase IA and the synergistic composition of bisbenzimidazole with efflux pump inhibitors against pathogenic bacteria” (Jawaharlal Nehru University (JNU), priority 2016, dated 2022)
Values after ≈ are worked out from the molar mass of the structure shown.

Tests used:
E. coli Topoisomerase IA = E. coli Topoisomerase IA (Escherichia coli, UniProt P06612); test: Topoisomerase IA cleavage and religation assay; assay type: biochemical; conditions: 0.12-2 μM DMA, 5′-32P labeled ssDNA
E. coli Topoisomerase IA, sequence (P06612 whole entry): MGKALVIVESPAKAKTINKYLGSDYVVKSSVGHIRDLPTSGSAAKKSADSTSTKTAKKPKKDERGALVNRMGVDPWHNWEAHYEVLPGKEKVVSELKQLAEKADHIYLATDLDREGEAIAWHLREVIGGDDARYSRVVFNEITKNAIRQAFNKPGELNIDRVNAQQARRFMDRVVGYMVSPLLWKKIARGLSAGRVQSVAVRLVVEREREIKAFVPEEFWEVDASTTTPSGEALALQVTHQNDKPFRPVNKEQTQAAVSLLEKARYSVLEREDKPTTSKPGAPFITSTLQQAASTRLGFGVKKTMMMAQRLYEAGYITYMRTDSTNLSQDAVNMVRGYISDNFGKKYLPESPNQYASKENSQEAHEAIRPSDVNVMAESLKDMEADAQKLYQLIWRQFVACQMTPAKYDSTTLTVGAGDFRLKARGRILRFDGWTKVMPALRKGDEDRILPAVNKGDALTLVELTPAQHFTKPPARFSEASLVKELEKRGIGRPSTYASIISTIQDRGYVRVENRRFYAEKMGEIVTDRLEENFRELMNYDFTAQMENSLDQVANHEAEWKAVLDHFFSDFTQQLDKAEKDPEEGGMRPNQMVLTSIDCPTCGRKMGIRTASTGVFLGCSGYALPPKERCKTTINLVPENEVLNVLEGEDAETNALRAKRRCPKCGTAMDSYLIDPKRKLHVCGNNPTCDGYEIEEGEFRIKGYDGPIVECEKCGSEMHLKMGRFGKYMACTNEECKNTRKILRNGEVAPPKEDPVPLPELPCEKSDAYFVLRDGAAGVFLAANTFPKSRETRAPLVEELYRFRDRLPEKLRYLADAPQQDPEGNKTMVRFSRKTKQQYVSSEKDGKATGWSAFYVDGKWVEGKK
Description: Compounds at different concentrations were added to DNA cleavage reaction mixtures (20 μl) containing 50 mM TrisHCl, pH 7.5, 2 mM MgCl2 0.2 mM DTT, 0.5 mM EDTA, 30 μg/ml BSA, 25 μg/ml of pHOT1 having specific site for DNA, 40 units of E. coli Topoisomerase IA and ligands was incubated at 37° C. for 30 min. The reactions was then terminated by adding 1% SDS and 150 μg/m Proteinase K, and incubated further for 1 h at 37° C. The DNA samples was electrophoresed in 1% agarose gel in 0.5×TBE. Ethidium bromide at a finial concentration of 0.5 μg/ml was included in the gel to resolve slowly migrating nicked product (cleavable complex) from the supercoiled DNA molecules.

[1] = molecular target: E. coli Topoisomerase IA (EcTopoIA) (Escherichia coli, UniProt P06612); conditions: reference 5; cited from earlier work
E. coli Topoisomerase IA (EcTopoIA), sequence (P06612 whole entry): as above

E. coli DH5α = test: Susceptibility (MIC, PAE, MBC), broth microdilution
Description: (§1) MICs were determined by the broth microdilution method according to CLSI methods (Clinical and Laboratory Standards Institute, 2005). Inoculants were incubated at 37° C. on cation adjusted Mueller Hinton (MH) Broth for 18 to 24 h. Compound were dissolved in media to 10 doubling dilutions from 128 to 0.125 μg/mL. All the bacterial strains were grown in 96 well plate with low evaporation lid (Falcon, Becton Dickinson) in presence of derivatives of benzimidazoles at 0.125, 0.25, 0.5, 1, 2, 4, 8, 16, 32, 64, 128, 256 μg/mL concentrations. […] Plates were read by Tecan Micro-plate Reader at 600 nm.

[2] = system: Escherichia coli (ATCC 25922); test: as above
Description: as §1

E. coli 72^R = test: as above; conditions: Escherichia coli
E. coli 118^R = test: as above
E. coli 85^R = test: as above
Description: as §1

E. coli 360^R = test: as above
Description: as §1

E. coli 451^R = test: as above
Description: as §1

E. coli 59^R = test: as above
Description: as §1

E. coli 81^R = test: as above
Description: as §1

E. coli 132^R = test: as above
Description: as §1

E. coli 151^R = test: as above
Description: as §1

E. coli 401^R = test: as above
Description: as §1

E. coli 555^R = test: as above
Description: as §1

In the case of `COc1ccc(-c2nc3cc(-c4nc5ccc(N6CCN(C)CC6)cc5[nH]4)ccc3[nH]2)cc1OC` [DMA, 3,4-Dimethoxyphenyl bisbenzimidazole, reference compound], the “DNA cleavage product formed by EcTopo1A” value (E. coli Topoisomerase IA) is listed as “increased the DNA cleavage product formed by EcTopo1A”, the target specificity [1] is listed as “specific Escherichia coli Topoisomerase IA poison inhibitor over Gyrase, Human Topoisomerase I and Human Topoisomerase II” and the PAE (E. coli DH5α; E. coli DH5α) is listed as 20.8 h. It also gave an MBC (E. coli DH5α; Escherichia coli) of 16 µM (≈ 7.5 µg/mL), an MIC (E. coli DH5α; Escherichia coli) of 3.74 µg/mL (≈ 7.98 µM) and a PAE ([2]; ATCC 25922) of 22.3 h. It also gave an MBC ([2]; Escherichia coli, ATCC25922) of 64 µM (≈ 30 µg/mL), an MIC ([2]; Escherichia coli, ATCC25922) of 15 µg/mL (≈ 32 µM) and an MBC (E. coli 72^R) of 16 µM (≈ 7.5 µg/mL). For the same molecule, the MIC (E. coli 72^R) was 3.74 µg/mL (≈ 7.98 µM), the PAE (E. coli 118^R; E. coli 118^R) was 24 h and the MBC (E. coli 118^R; Escherichia coli) was 16 µM (≈ 7.5 µg/mL). It also gave an MIC (E. coli 118^R; Escherichia coli) of 3.74 µg/mL (≈ 7.98 µM), a PAE (E. coli 85^R; E. coli 85^R) of 24 h and an MBC (E. coli 85^R; Escherichia coli) of 16 µM (≈ 7.5 µg/mL). The MIC (E. coli 85^R; Escherichia coli) was 3.74 µg/mL (≈ 7.98 µM), the PAE (E. coli 360^R; E. coli 360^R) was 24 h and the MBC (E. coli 360^R; Escherichia coli) was 16 µM (≈ 7.5 µg/mL). For the same molecule, the MIC (E. coli 360^R; Escherichia coli) was 3.74 µg/mL (≈ 7.98 µM), the PAE (E. coli 451^R; E. coli 451^R) was 22 h and the MBC (E. coli 451^R; Escherichia coli) was 16 µM (≈ 7.5 µg/mL). The MIC (E. coli 451^R; Escherichia coli) was 3.74 µg/mL (≈ 7.98 µM), the PAE (E. coli 59^R; E. coli 59^R) was 1.6 h and the MBC (E. coli 59^R; Escherichia coli) was 32 µM (≈ 15 µg/mL). It also gave an MIC (E. coli 59^R; Escherichia coli) of 7.49 µg/mL (≈ 16 µM), a PAE (E. coli 81^R; E. coli 81^R) of 23.6 h and an MBC (E. coli 81^R; Escherichia coli) of 32 µM (≈ 15 µg/mL). For the same molecule, the MIC (E. coli 81^R; Escherichia coli) was 7.49 µg/mL (≈ 16 µM), the PAE (E. coli 132^R; E. coli 132^R) was 24 h and the MBC (E. coli 132^R; Escherichia coli) was 32 µM (≈ 15 µg/mL). It also gave an MIC (E. coli 132^R; Escherichia coli) of 7.49 µg/mL (≈ 16 µM), a PAE (E. coli 151^R; E. coli 151^R) of 21.6 h and an MBC (E. coli 151^R; Escherichia coli) of 32 µM (≈ 15 µg/mL). The MIC (E. coli 151^R; Escherichia coli) was 7.49 µg/mL (≈ 16 µM), the PAE (E. coli 401^R; E. coli 401^R) was 16 h and the MBC (E. coli 401^R; Escherichia coli) was 64 µM (≈ 30 µg/mL). For the same molecule, the MIC (E. coli 401^R; Escherichia coli) was 15 µg/mL (≈ 32 µM), the PAE (E. coli 555^R; E. coli 555^R) was 24 h and the MBC (E. coli 555^R; Escherichia coli) was 64 µM (≈ 30 µg/mL). The MIC (E. coli 555^R; Escherichia coli) was 15 µg/mL (≈ 32 µM).
